Assays:
[1] = tested on: purified normal unstimulated T lymphocytes or peripheral blood mononuclear cells; experiment: Apoptosis assay in normal cells; type: cell-based, human; conditions: even at 10.0 μM 9-ING-41
Method: Unstimulated peripheral blood B- and T-lymphocytes isolated from a healthy donor were used as normal control. Pro-apoptotic effect of the GSK3 inhibitor 9-ING-41 in various MCL and TCL lines (A) and DLBCL lines (B). (C) Cell proliferation profile of various lymphoma cell lines upon treatment with 9-ING-41. Results (A-C) are from 3 independent experiments.
Cells were seeded at 5×10^5 cells/well in 24 well plates, and incubated with 9-ING-41 at indicated concentrations for 48 hours. The cells were then stained with FITC conjugated Annexin V (Life Technologies) and Propidium Iodide followed by analysis on a BD FACS Calibur flow cytometer.
Given that both GSK3α and GSK3β are overexpressed in lymphoma cells, and that both enzymes are implicated in multiple signaling pathways critical for cell functions, whether GSK3α and GSK3β are functionally supporting the survival and proliferation of lymphoma cells was examined. […] The inhibitory concentrations of 9-ING-41 at half of the maximal effect (IC50) on cell survival of various lymphoma cell lines was calculated (Table 1).

[2] = tested on: Diffuse large B-cell lymphoma; experiment: Treatment of Diffuse Large B-cell Lymphoma in a human; type: in vivo; conditions: 1 mg/kg per day, six 21 day cycles
Method: A human suffering from Diffuse large B-cell lymphoma is administered 1 mg/kg per day of 9-ING-41 for six 21 day cycles. After treatment, the human's DLBCL is in remission.

[3] = tested on: lymphoma cell lines (Jeko, Mino, OCI-Ly3); experiment: DNA cell cycle analysis; type: cell-based, human; conditions: after as little as 24 hours of treatment, all lines tested
Method: (B) Cell cycle profiles of parental Ly-1 cells and GSK3α, GSK3β, GSK-3αβ knockout subclones. Inset: Western blot image showing the depletion of GSK3α and GSK-3β protein in the knockout Ly-1 subclones.
Cells were fixed and permeabilized with cold ethanol, treated with RNase, and stained with propidium iodide (Sigma). Stained cells were run on a BD FACS Calibur using CELLQuest PRO Software (Becton Dickinson). Data were analyzed with FlowJo v.X software (Tree Star Inc).
The effect of 9-ING-41 on lymphoma cell cycle kinetics was examined. […] To further determine whether this G2/M arrest specifically resulted from GSK3β inhibition, the cell cycle profile of parental (wildtype), GSK3A, GSK3B, and GSK3A/B knockout Ly-1 subclones was examined. […] These cell cycle abnormalities of GSK3B-null and GSK3A/B-null Ly-1 cells are subtle and have little impact on the survival of the Ly-1 progeny, likely through Ly-1 cell line specific compensatory mechanisms.

## Cn1cc(C2=C(c3coc4ccc(F)cc34)C(=O)NC2=O)c2cc3c(cc21)OCO3 [9-ING-41, 3-(5-Fluorobenzofuran-3-yl)-4-(5-methyl-5H-[1,3]dioxolo[4,5-f]indol-7-yl)pyrrole-2,5-dione]
[1]
  Apoptosis in normal cells: no significant apoptosis
[2]
  Outcome after treatment: in remission
[3]
  Cell cycle effect: cell cycle blockage at G2/M

Source: US11980607B2, “Methods of treating malignant lymphoproliferative disorders” (Actuate Therapeutics Inc., priority 2018, dated 2024)
